According to PMC8778526, “N-Alkylmorpholines: Potent Dermal and Transdermal Skin Permeation Enhancers” (Pharmaceutics, 2021):
Converted amounts (≈) assume the structure as drawn. Where two headings read alike, the source gives them in different places.

Experiments:
porcine skin [1] = experiment: ATR-FTIR of enhancer-treated skin; conditions: skin treated 24 h with 1% enhancer in 60% PG
Experimental: ATR-FTIR is a powerful method to investigate the interactions of enhancers with SC lipids and proteins. […] Pure distilled water or 60% aqueous PG were applied as controls. […] IR spectra of the skin surface were recorded by an IR spectrometer (Nicolet iZ10, Thermo Scientific, Waltham, MA, USA), equipped with a single reflection […] ZnSe crystal (PIKE Technologies, Madison, WI, USA) at constant clamping pressure. […] Collected spectra were normalised, to reduce potential variations in the overall intensity of the spectra. Selected regions (amide I, amide II and CH2 stretching vibration bands) were fitted in Origin Pro (OriginLab, Wellesley Hills, MA, USA). The position, height and area of these selected peaks were compared among the particular spectra and the variances between peak characteristics were statistically evaluated by GraphPad Prism® software (GraphPad Software, Inc., La Jolla, CA, USA).

[2] = cited from earlier work
[3] = system: human keratinocytes HaCaT; experiment: Cytotoxicity, CCK-8 viability assay; assay type: cell-based; conditions: read-out: IC50, concentration causing 50% decrease in cell viability, 24 h incubation
Experimental: Cytotoxicity of the three best enhancers (Mo10, Mo12, Mo14) was evaluated on non-malignant spontaneously immortalised human keratinocytes HaCaT (Cell Lines Service, Eppelheim, Germany). The cell line was cultivated in Dulbecco’s Modified Eagle’s Medium (DMEM, Sigma Aldrich, St. Luis, MO, USA), supplemented with 10% Fetal Bovine Serum (Sigma Aldrich, St. Luis, MO, USA) in a Petri dish at 37 °C in a humidified atmosphere of 5% CO2. Cells were subcultured two times a week. For cytotoxicity experiments, 96-well plates were seeded with cells (at a density of 10,000 cells per well) in 100 μL of culture medium and incubated at 37 °C in a humidified atmosphere of 5% CO2 for 24 h.
The enhancers were dissolved in DMEM, left in an ultrasonic bath for 15 min and then kept at 37 °C overnight. On the next day, 10 μL of the particular enhancer solution was added to 100 μL of cell suspensions, to receive final enhancer concentrations in the range of 0.9–110 μM (concentrations determined according to our preliminary testing). The cells were incubated with tested compounds for 24 h. Then, the cell viability was determined, using the Cell Counting Kit-8 (CCK-8, Sigma Aldrich, St. Luis, MO, USA). The cells were incubated with 10 μL of the CCK-8 for 2 h. Thereafter, absorbance was measured at 450 nm, using the Infinite 200 PRO microplate reader (Tecan Austria GmbH, Austria). The mean optical density (absorbance) was used to calculate the percentage of cell viability as follows: percentage of cell viability=Atreatment−Ablank/Acontrol −Ablank×100 %, where A is the absorbance.

porcine skin [4] = experiment: Skin electrical impedance measurements; conditions: 1% enhancer, 48 h; control ratio set to 1
Experimental: For monitoring the skin integrity and characterisation of the permeation enhancers’ effect, the electrical impedance of each skin was measured, using an LCR 4080 multimeter (Voltcraft, Hirschau, Germany), set in parallel-equivalent mode with an alternating current frequency of 120 Hz. The measurements were carried out according to established protocols. The measurements were performed in the Franz diffusion cells. After the initial hydration and equilibration, the donor compartments were filled with 500 μL of PBS. One wire of the multimeter was placed in PBS in the acceptor, the other in the donor phase and the electrical impedance was determined. The next measurement was taken after the 48 h permeation experiment. When the donor samples ([…]) were removed, they were replaced with 500 μL PBS and the electrical impedance was re-measured. The electrical impedance ratio (EIR) was calculated for each cell as (2) EIR=EI1/EI2 where EI1 [kΩ] is electrical impedance before and EI2 [kΩ] after the 48 h treatment by the donor formulation.

porcine skin [5] = experiment: In vitro permeation experiment, Franz-type diffusion cells; conditions: for ER, enhancement ratio: flux with/without 1% enhancer; for Jss, steady-state flux of the model drug: control, pure vehicle 60% PG without enhancer
porcine skin [6] = experiment: Transepidermal water loss (TEWL) measurements, reversibility of enhancer effect; conditions: for TEWL after the 2 h treatment: 1% enhancer in 60% PG applied 2 h; for TEWL after the 24 h treatment: 1% enhancer in 60% PG applied 24 h; for TEWL after 20 h: after 2 h treatment and enhancer removal; for TEWL within 24 h after the enhancers' removal: after 24 h treatment; for reversibility of the effect on the skin barrier: short-term 2 h application
Experimental: The reversibility of the enhancers’ effects was studied by evaluation of the difference in the water loss through the intact and enhancer-treated skin. […] The TEWL measurements were carried out according to established protocols. The skin samples were mounted into Franz diffusion cells, with the acceptor compartments filled with PBS pH 7.4 and placed in a water bath at 32 °C to hydrate and equilibrate. At first, the base TEWL values of untreated skin samples were measured. Each of the Franz diffusion cells was removed from the water bath, dried completely with compressed air and inserted into a holder. Then the TEWL probe was placed 1.0 cm above the skin surface. The measuring time was on average 80–100 s. […] The cells were then incubated at 32 °C. The donor samples were removed after 2 h or 24 h and the skin surface was washed with 0.5 mL of PBS, gently blotted dry and thoroughly dried with compressed air. After the enhancer was removed, TEWL was measured at predetermined intervals over 42 or 50 h.

[7] = cited from earlier work; remark: listed apart in the source
[8] = Effect of enhancers on drug solubility in the donor phase; conditions: 32 °C, aqueous with cosolvent or surfactant or cyclodextrin, thermodynamic from solid
[9] = ref Drugbank, ALOGPS; cited from earlier work
porcine skin [10] = experiment: Entrapment of model drug in the skin after the permeation experiment; assay type: in vitro ADME; conditions: control without enhancer
Experimental: At the end of the permeation experiment, the Franz diffusion cells were dismounted and the skin surface was thoroughly washed by distilled water and PBS. The skin area, which was exposed to the donor phase, was cut out, weighed and extracted by 5 mL of the respective mobile phase by shaking for 24 h at 32 °C on a laboratory shaker. The extracts were then filtered through 0.45 µm cellulose filters to eliminate skin residues and analysed by HPLC. Drug concentration in the skin, expressed as mg of model drugs per g of the skin tissue was calculated by dividing permeants’ amounts by the respective skin weights.

[11] = In vitro permeation experiment, Franz-type diffusion cells; conditions: pig, pH 7.4
[12] = donor phase: 60% PG in distilled water without enhancer

## CCCCCCCCCCCCN1CCCCCC1=O [Azone, N-dodecylazacykloheptan-2-on, reference compound]
Porcine skin [1]
  vasCH2, position of asymmetric CH2 stretching vibration: 2921.84 ± 0.34 cm⁻¹
  vsCH2, position of symmetric CH2 stretching vibration: 2851.16 ± 0.21 * cm^−1
[2]; ref 57
  IC50: 49 µM
[2]; ref 58
  IC50: 117 µM

## CCCCCCCCCCCCN1CC(CO)OC(OC)C1 (stereo not shown) [Mo12]
[3]
  IC50: 41 ± 0.8 µM
Porcine skin [4]
  EIR, electrical impedance ratio (before/after treatment): 1.60 ± 0.13
Porcine skin [5]; permeant DF
  ER, enhancement ratio: 1.81
Porcine skin [5]; permeant IND
  ER, enhancement ratio: 10.01
Porcine skin [5]; permeant TH
  ER, enhancement ratio: 14.53
Porcine skin [6]
  TEWL after the 2 h treatment: 8.2 ± 0.3 g·m^−2·h^−1
  TEWL after the 24 h treatment: 18.5 ± 1.2 g·m^−2·h^−1
  TEWL after 20 h: 3.2 ± 0.3 g·m^−2·h^−1
  TEWL within 24 h after the enhancers' removal: 9.5 ± 0.1 g·m^−2·h^−1
  reversibility of the effect on the skin barrier: reversible
Porcine skin [1]
  vasCH2, position of asymmetric CH2 stretching vibration: 2921.14 ± 0.61 cm⁻¹
  vsCH2, position of symmetric CH2 stretching vibration: 2851.56 ± 0.23 * cm^−1

## CCCCCCCCCCCCOC(=O)CCCCCN.CCCCCCCCCCCCOC(=O)CCCCCNC(=O)O [Transkarbam 12]
[2]; ref 29
  IC50: 21 µM

## CCCCCCCCCCN1CC(CO)OC(OC)C1 (stereo not shown) [Mo10]
[3]
  IC50: 94 ± 1.5 µM
Porcine skin [4]
  EIR, electrical impedance ratio (before/after treatment): 1.66 ± 0.19
Porcine skin [5]; permeant DF
  ER, enhancement ratio: 1.43
Porcine skin [5]; permeant IND
  ER, enhancement ratio: 7.80
Porcine skin [5]; permeant TH
  ER, enhancement ratio: 9.87
Porcine skin [6]
  TEWL after the 2 h treatment: 11.7 ± 0.8 g·m^−2·h^−1
  TEWL after the 24 h treatment: 15.6 ± 2.2 g·m^−2·h^−1
  TEWL after 20 h: 4.8 ± 0.1 g·m^−2·h^−1
  TEWL within 24 h after the enhancers' removal: 4.3 ± 0.7 g·m^−2·h^−1
  reversibility of the effect on the skin barrier: reversible
Porcine skin [1]
  vasCH2, position of asymmetric CH2 stretching vibration: 2921.91 ± 0.40 cm⁻¹
  vsCH2, position of symmetric CH2 stretching vibration: 2852.58 ± 0.71 * cm^−1

## CCCCCCCCC=CCCCCCCCCN1CC(CO)OC(OC)C1 (stereo not shown) [Mo18/1]
Porcine skin [5]; permeant DF
  ER, enhancement ratio: 1.94
Porcine skin [5]; permeant IND
  ER, enhancement ratio: 3.94
Porcine skin [5]; permeant TH
  ER, enhancement ratio: 5.01
Porcine skin [1]
  vasCH2, position of asymmetric CH2 stretching vibration: 2920.35 ± 0.36 cm⁻¹
  vsCH2, position of symmetric CH2 stretching vibration: 2850.76 ± 0.15 cm⁻¹

## dodecyl amino glucoside
[2]; ref 34
  IC50: 24 µM

## Cn1c(=O)c2[nH]cnc2n(C)c1=O [TH, theophylline]
[7]; ref 25
  solubility in PBS: 7650 µg/mL (≈ 42.5 mM)
[8]
  solubility at 48 h: 20000 ± 620 µg/mL
[9]
  logP: −0.02

## COc1ccc2c(c1)c(CC(=O)O)c(C)n2C(=O)c1ccc(Cl)cc1 [IND, indomethacin]
[7]; ref 26
  solubility in PBS: 650 µg/mL (≈ 1.82 mM)
Porcine skin [10]
  amount of the model drug in the skin: 32.43 ± 6.98 μg·gskin^−1
[8]; [12]
  solubility at 48 h: 950 ± 510 µg/mL
Porcine skin [5]
  Jss, steady-state flux of the model drug: 0.51 ± 0.09 µg·cm^−2·h^−1
[11]
  Papp at 48 h: 0.104 ×10⁻⁶ cm/s

## CCCCN1CC(CO)OC(OC)C1 (stereo not shown) [Mo4]
Porcine skin [5]; permeant DF
  ER, enhancement ratio: 1.04
Porcine skin [5]; permeant IND
  ER, enhancement ratio: 5.78
Porcine skin [5]; permeant TH
  ER, enhancement ratio: 1.38

## O=C(O)Cc1ccccc1Nc1c(Cl)cccc1Cl [DF, diclofenac sodium]
[7]; ref 27
  solubility in PBS: 5150 µg/mL
Porcine skin [10]
  amount of the model drug in the skin: 380.10 ± 50.52 μg·gskin^−1
[8]; [12]
  solubility at 48 h: 57800 ± 2550 µg/mL
Porcine skin [5]
  Jss, steady-state flux of the model drug: 5.74 ± 1.04 µg·cm^−2·h^−1
[11]
  Papp at 48 h: 0.0275 ×10⁻⁶ cm/s

## CCCCCCCCCCCCCCN1CC(CO)OC(OC)C1 (stereo not shown) [Mo14]
[3]
  IC50: 41.5 ± 1.5 µM
Porcine skin [4]
  EIR, electrical impedance ratio (before/after treatment): 1.64 ± 0.14
Porcine skin [5]; permeant DF
  ER, enhancement ratio: 2.58
Porcine skin [5]; permeant IND
  ER, enhancement ratio: 9.10
Porcine skin [5]; permeant TH
  ER, enhancement ratio: 8.67
Porcine skin [6]
  TEWL after the 2 h treatment: 9.0 ± 0.4 g·m^−2·h^−1
  TEWL after the 24 h treatment: 18.1 ± 0.8 g·m^−2·h^−1
  TEWL after 20 h: 4.6 ± 0.7 g·m^−2·h^−1
  TEWL within 24 h after the enhancers' removal: 4.7 ± 0.1 g·m^−2·h^−1
  reversibility of the effect on the skin barrier: reversible
Porcine skin [1]
  vasCH2, position of asymmetric CH2 stretching vibration: 2919.48 ± 0.42 cm⁻¹
  vsCH2, position of symmetric CH2 stretching vibration: 2850.74 ± 0.14 cm⁻¹

## CCCCCCCCCCCCOC(=O)CCCCCN(C)C [DDAK]
[2]; ref 29
  IC50: 76 µM

## CCCCCCCCCCCCCCCCCCN1CC(CO)OC(OC)C1 (stereo not shown) [Mo18]
Porcine skin [5]; permeant DF
  ER, enhancement ratio: 1.14
Porcine skin [5]; permeant IND
  ER, enhancement ratio: 1.95
Porcine skin [5]; permeant TH
  ER, enhancement ratio: 3.06

## CCCCCCCCN1CC(CO)OC(OC)C1 (stereo not shown) [Mo8]
Porcine skin [5]; permeant DF
  ER, enhancement ratio: 1.17
Porcine skin [5]; permeant IND
  ER, enhancement ratio: 6.28
Porcine skin [5]; permeant TH
  ER, enhancement ratio: 4.63
